Activity calls are given as the source filed them.
Columns and labels:
[1] = molecular target: T1, Bcl-2-like protein 10 (Homo sapiens, UniProt Q9HD36); experiment: Bcl-B/TR3 peptide binding disruption – biochemical, fluorescence polarization, FITC-TR3 peptide, selectivity assay for Bfl-1 inhibitor project, primary screen (AID 748);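 note: fluorescence polarization from a fluorescein-labelled TR3 peptide binding purified Bcl-B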
T1 sequence (Q9HD36 whole entry): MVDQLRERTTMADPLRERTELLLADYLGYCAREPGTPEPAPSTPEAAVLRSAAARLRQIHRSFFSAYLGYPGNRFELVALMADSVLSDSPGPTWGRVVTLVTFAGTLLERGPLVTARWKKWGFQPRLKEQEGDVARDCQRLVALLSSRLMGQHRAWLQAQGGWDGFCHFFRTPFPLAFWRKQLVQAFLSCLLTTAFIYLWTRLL

[2] = molecular target: T2, Cytochrome P450 3A4 (Homo sapiens, UniProt P08684);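 note: CYP3A4 tested as one member of a cytochrome P450 panel screen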
[3] = molecular target: Troponin, cardiac muscle (Homo sapiens, UniProt P19429+P45379+P63316); experiment: Fluorescence-based biochemical high throughput dose response assay for activators of the calcium sensitivity of cardiac Regulated Thin Filaments (RTF). [Related pubchem assays (depositor defined):AID493008, AID493018, AID504382, AID504383]; format: protein-complex assay
[4] = molecular target: T3, Aminopeptidase N (Plasmodium falciparum FcB1/Columbia, UniProt O96935); experiment: malaria alanyl aminopeptidase activity blockers – biochemical, fluorogenic H-Leu-NHMec substrate, 1536-well (AID 1445); parameters: species or system Plasmodium falciparum 3D7, 3D7
T3 sequence (O96935 whole entry): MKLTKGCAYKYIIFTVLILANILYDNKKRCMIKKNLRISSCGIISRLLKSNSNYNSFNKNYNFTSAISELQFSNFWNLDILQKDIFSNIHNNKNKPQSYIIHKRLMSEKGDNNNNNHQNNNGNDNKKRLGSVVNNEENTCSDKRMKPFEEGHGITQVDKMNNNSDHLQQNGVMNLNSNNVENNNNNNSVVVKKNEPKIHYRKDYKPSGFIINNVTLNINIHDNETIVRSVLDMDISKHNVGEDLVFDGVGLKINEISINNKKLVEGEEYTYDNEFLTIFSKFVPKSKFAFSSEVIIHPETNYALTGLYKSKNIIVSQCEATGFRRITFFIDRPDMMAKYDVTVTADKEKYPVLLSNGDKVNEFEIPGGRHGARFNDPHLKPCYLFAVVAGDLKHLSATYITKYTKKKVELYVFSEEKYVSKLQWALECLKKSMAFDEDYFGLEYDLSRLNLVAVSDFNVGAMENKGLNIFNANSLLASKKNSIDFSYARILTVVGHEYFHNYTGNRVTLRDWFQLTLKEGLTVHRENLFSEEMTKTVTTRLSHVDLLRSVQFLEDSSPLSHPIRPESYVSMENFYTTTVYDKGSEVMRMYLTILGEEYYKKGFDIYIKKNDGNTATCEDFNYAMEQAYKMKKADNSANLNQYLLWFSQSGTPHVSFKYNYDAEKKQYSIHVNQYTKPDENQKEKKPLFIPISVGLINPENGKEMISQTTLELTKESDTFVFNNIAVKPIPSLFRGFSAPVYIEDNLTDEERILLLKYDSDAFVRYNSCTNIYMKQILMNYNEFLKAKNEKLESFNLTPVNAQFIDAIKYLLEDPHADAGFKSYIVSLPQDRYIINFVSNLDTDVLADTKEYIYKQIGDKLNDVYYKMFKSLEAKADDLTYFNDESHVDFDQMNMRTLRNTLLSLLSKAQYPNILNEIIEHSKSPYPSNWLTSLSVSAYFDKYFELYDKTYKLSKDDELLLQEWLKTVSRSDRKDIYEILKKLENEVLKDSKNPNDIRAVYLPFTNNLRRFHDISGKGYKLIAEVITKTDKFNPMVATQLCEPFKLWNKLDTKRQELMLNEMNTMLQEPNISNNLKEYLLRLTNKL

[5] = Trypanosoma cruzi growth suppression in host cells – NIH3T3 host cells, beta-gal luminescence, confirmation (AID 2044); format: functional, cell-based;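 note: intracellular parasites grown in NIH/3T3 mouse fibroblasts as host cells; luminescent beta-galactosidase reporter signal from transgenic T. cruzi replicating inside host cells; inhibitors lower the luminescence signal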
[6] = NIH3T3 cell viability loss – ATP luminescence, mouse fibroblasts, counter-screen, dose response (AID 2010); format: functional, cell-based;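 note: cells exposed to compound for about 90 hours before reading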
[7] = molecular target: Glucose-6-phosphate 1-dehydrogenase (Homo sapiens, UniProt P11413); experiment: inhibition of Homo sapiens G6PD, dose series – biochemical, fluorescence, selectivity assay for P. falciparum G6PD inhibitor project, dose response (AID 504792); format: functional
[8] = molecular target: T2, Cytochrome P450 3A4; remark: listed apart in the source
[9] = molecular target: Voltage-gated inwardly rectifying potassium channel KCNH2 (Homo sapiens, UniProt Q12809); conditions: Potency;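 note: confirmatory quantitative high-throughput screen measuring inhibition of hERG channel activity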
[10] = NIH-3T3 fibroblast cytotoxicity, dose response, cytotoxicity control, cell-based, fluorescence, Alamar Blue, secondary assay (AID 2327); format: functional;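 note: NIH-3T3 mouse fibroblasts cultured with fluconazole at 8 µg/mL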
[11] = fluconazole-exposed Candida albicans growth modulators – fluorescence, retest, confirmation (AID 2467); format: functional, cell-based
[12] = Luminescence Cell-Based Dose Retest to Confirm Inhibitors of Cancer Stem Cells. [Related pubchem assays (depositor defined):AID2717, AID2721]; format: functional; conditions: Homo sapiens
[13] = molecular target: SUMO-activating enzyme (Homo sapiens, UniProt Q9UBT2); experiment: blockers of UBC9-mediated SUMO conjugation – biochemical, AlphaScreen, SUMOylation inhibitor project, confirmation (AID 2018); format: functional
[14] = molecular target: DNA dC->dU-editing enzyme APOBEC-3A (Homo sapiens, UniProt P31941); experiment: Dose Response confirmation of small molecule APOBEC3A DNA Deaminase Inhibitors via a fluorescence-based single-stranded DNA deaminase assay. [Related pubchem assays (depositor defined):AID493011, AID493024]; format: functional
[15] = molecular target: DNA dC->dU-editing enzyme APOBEC-3G (Homo sapiens, UniProt Q9HC16); format: functional;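 note: Dose-response counterscreen measuring inhibition of APOBEC3G DNA deaminase activity, run while confirming APOBEC3A inhibitors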
[16] = molecular target: T4, Beta-galactosidase (Escherichia coli, UniProt Q8VNN2); experiment: PubChem AID 485352; format: functional
[17] = molecular target: T5, Type-1 angiotensin II receptor (Homo sapiens, UniProt P30556); experiment: antagonism of angiotensin II type 1 receptor – cell-based, uHTS hits, selectivity assay for APJ receptor antagonist project, dose response (AID 463214); format: functional;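 note: antagonist potency against angiotensin II stimulated AT1 response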
T5 sequence (P30556 whole entry): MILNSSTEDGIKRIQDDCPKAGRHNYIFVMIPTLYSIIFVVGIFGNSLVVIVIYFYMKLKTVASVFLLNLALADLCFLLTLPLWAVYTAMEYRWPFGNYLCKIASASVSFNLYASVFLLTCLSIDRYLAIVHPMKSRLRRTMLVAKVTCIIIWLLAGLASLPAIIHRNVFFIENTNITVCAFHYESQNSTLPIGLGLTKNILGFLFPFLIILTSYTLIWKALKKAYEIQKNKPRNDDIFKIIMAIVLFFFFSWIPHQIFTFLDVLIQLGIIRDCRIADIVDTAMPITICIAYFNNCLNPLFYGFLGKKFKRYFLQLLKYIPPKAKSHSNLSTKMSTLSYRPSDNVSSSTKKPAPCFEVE

[18] = molecular target: T4, Beta-galactosidase; experiment: detection-enzyme interference by beta-gal modulators – biochemical, E. coli enzyme, set 3, artefact control for CCR6 antagonist project, dose response (AID 504712); format: functional
[19] = molecular target: T6, Protein skinhead-1 (Caenorhabditis elegans, UniProt P34707); format: functional
T6 sequence (P34707 whole entry): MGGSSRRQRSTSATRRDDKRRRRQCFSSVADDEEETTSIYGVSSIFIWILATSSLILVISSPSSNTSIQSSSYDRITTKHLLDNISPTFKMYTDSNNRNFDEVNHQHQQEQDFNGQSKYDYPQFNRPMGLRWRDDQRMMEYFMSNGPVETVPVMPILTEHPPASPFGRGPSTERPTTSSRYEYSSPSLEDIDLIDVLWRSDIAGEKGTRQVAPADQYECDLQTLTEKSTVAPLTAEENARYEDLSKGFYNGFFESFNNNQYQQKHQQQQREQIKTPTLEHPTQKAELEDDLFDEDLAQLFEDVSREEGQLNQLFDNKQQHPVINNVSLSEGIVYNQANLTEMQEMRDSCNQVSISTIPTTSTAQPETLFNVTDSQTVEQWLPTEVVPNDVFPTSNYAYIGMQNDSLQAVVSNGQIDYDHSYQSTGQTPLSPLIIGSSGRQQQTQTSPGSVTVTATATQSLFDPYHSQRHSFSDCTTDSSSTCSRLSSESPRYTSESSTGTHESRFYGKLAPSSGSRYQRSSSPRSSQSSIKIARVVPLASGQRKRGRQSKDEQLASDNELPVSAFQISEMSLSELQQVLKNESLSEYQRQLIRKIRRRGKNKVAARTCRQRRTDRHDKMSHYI

[20] = molecular target: T7, Rac GTPase-activating protein 1 (Homo sapiens, UniProt Q9H0H5); experiment: blockers of MgcRacGAP-driven Rac1 GTP hydrolysis – biochemical, ADP Hunter fluorescence, primary and confirmatory, confirmation (AID 624330); format: functional
T7 sequence (Q9H0H5 whole entry): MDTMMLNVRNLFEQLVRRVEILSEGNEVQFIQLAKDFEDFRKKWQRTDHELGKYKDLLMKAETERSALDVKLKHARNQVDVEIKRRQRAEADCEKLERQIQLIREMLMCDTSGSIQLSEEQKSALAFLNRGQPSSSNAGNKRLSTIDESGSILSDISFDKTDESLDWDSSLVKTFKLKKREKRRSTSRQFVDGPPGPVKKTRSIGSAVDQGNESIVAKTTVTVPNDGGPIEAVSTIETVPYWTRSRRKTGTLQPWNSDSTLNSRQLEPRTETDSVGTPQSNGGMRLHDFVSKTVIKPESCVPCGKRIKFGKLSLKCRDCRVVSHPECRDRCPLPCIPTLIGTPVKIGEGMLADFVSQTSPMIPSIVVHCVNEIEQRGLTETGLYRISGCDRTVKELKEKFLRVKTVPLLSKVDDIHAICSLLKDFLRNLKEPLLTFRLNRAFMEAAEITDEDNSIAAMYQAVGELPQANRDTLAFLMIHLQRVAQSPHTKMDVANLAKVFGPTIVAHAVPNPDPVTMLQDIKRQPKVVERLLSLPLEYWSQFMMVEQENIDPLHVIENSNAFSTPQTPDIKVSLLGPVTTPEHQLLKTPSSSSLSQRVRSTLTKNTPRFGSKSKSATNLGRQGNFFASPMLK

[21] = test system: HEK293; experiment: cells; conditions: Homo sapiens
[22] = test system: HEK293; experiment: cells; conditions: Homo sapiens; remark: listed apart in the source
[23] = molecular target: T8, Tyrosine-protein phosphatase non-receptor type 7 (Homo sapiens, UniProt P35236); experiment: redox-active compounds inhibiting HePTP phosphatase – biochemical, fluorescence, mechanism study (AID 2068); format: functional
T8 sequence (P35236 whole entry): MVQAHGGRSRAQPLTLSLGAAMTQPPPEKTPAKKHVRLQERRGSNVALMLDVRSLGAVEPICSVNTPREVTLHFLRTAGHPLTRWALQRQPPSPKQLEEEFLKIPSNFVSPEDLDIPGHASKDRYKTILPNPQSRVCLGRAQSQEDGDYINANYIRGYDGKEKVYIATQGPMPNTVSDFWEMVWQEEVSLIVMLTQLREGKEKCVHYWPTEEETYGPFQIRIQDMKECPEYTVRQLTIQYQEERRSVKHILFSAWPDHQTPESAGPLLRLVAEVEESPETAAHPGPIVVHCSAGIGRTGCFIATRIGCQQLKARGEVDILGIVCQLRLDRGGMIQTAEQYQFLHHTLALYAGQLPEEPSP

Sequence of DNA dC->dU-editing enzyme APOBEC-3G (Q9HC16 whole entry): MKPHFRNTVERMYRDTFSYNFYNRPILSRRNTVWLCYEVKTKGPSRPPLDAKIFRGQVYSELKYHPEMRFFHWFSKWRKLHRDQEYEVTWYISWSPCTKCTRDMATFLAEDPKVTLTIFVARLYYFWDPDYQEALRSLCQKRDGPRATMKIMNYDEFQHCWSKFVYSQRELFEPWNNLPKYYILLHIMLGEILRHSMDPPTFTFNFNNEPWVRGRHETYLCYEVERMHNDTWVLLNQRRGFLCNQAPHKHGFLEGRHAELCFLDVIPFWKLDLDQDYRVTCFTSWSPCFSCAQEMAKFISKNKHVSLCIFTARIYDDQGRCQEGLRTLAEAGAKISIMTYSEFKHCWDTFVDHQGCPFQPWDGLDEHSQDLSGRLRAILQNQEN
Sequence of Glucose-6-phosphate 1-dehydrogenase (P11413 whole entry): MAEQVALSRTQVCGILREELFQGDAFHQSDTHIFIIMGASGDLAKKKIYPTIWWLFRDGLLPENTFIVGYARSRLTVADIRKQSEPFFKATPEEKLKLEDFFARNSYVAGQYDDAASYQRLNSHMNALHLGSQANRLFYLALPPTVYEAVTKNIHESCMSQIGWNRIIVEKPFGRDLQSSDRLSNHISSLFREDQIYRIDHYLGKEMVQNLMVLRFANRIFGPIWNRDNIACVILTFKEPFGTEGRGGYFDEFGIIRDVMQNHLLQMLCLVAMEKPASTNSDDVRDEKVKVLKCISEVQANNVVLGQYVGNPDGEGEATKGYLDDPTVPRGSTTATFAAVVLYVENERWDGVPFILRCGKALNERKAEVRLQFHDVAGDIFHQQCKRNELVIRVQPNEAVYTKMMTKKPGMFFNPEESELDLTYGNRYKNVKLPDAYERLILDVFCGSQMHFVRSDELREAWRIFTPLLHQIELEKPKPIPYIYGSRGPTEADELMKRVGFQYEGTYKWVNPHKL
Sequence of DNA dC->dU-editing enzyme APOBEC-3A (P31941 whole entry): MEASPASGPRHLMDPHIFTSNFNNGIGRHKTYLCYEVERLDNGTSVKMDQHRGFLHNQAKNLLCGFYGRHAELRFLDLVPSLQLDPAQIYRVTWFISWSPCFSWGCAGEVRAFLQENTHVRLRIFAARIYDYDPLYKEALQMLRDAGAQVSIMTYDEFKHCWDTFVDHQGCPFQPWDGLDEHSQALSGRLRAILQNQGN
T2 sequence (P08684 whole entry): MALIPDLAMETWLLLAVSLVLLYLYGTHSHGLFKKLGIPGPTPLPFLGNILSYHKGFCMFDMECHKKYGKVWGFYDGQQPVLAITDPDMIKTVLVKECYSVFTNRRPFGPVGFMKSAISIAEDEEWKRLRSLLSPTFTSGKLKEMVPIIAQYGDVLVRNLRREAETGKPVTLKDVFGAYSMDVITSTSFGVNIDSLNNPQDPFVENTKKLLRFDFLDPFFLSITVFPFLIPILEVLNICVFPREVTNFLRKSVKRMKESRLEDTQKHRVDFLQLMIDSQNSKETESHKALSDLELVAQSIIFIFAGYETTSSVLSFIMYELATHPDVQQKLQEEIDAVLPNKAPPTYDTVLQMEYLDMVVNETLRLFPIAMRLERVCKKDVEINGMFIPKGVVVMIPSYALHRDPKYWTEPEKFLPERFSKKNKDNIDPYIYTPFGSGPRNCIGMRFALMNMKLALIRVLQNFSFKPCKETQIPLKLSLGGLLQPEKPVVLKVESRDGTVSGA
T4 sequence (Q8VNN2 whole entry): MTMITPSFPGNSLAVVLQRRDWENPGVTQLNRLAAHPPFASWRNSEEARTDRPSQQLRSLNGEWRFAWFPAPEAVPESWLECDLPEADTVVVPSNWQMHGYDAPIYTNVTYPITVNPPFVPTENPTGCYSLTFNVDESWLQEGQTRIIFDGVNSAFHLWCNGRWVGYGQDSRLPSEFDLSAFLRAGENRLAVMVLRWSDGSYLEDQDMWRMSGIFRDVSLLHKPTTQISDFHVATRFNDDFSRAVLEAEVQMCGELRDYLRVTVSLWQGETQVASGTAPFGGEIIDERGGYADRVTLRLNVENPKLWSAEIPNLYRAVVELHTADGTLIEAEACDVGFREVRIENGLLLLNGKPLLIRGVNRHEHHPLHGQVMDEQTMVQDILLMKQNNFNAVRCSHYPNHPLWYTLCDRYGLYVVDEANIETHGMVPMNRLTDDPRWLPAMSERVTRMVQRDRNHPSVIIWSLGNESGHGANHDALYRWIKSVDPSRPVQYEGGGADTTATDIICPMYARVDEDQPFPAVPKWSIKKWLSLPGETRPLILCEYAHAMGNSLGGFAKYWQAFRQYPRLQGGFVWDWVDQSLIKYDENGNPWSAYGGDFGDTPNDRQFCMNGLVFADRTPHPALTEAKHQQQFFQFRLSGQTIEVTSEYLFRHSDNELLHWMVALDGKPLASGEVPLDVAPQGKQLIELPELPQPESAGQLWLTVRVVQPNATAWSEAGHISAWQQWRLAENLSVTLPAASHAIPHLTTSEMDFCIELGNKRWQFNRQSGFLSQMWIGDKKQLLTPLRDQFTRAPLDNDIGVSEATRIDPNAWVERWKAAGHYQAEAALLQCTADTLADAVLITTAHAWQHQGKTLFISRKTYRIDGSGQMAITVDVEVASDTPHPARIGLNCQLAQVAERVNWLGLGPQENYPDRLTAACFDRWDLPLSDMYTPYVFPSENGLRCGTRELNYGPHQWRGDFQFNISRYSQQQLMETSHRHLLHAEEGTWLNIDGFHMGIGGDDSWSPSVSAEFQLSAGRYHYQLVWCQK
Sequence of SUMO-activating enzyme (Q9UBE0 whole entry): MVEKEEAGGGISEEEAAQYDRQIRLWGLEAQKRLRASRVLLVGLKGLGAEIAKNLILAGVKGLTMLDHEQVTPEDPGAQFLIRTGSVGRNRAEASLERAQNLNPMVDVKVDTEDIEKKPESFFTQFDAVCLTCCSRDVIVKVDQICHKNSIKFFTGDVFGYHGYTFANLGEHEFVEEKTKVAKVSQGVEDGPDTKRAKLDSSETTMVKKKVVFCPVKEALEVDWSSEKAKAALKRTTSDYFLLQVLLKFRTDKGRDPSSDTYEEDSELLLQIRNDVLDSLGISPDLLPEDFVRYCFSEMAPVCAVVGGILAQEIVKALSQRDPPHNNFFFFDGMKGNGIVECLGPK
Sequence of SUMO-activating enzyme (Q9UBT2 whole entry): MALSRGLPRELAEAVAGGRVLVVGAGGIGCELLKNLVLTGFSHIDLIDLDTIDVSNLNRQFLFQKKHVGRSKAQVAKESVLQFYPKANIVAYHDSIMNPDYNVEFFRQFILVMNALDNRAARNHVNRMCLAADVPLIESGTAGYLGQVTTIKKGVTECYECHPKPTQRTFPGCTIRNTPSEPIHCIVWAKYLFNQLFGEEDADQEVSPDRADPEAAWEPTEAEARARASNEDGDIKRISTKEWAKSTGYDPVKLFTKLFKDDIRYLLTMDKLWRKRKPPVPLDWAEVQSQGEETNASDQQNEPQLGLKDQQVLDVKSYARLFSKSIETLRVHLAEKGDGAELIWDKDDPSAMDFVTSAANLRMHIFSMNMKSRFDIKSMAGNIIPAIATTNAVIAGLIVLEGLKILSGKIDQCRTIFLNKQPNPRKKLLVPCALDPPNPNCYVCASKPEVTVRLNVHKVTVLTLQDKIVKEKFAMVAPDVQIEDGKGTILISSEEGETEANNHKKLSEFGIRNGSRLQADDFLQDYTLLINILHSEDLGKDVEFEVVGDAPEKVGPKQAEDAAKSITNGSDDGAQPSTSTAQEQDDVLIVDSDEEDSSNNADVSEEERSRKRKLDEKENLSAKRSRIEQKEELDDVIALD
Sequence of Voltage-gated inwardly rectifying potassium channel KCNH2 (Q12809 whole entry): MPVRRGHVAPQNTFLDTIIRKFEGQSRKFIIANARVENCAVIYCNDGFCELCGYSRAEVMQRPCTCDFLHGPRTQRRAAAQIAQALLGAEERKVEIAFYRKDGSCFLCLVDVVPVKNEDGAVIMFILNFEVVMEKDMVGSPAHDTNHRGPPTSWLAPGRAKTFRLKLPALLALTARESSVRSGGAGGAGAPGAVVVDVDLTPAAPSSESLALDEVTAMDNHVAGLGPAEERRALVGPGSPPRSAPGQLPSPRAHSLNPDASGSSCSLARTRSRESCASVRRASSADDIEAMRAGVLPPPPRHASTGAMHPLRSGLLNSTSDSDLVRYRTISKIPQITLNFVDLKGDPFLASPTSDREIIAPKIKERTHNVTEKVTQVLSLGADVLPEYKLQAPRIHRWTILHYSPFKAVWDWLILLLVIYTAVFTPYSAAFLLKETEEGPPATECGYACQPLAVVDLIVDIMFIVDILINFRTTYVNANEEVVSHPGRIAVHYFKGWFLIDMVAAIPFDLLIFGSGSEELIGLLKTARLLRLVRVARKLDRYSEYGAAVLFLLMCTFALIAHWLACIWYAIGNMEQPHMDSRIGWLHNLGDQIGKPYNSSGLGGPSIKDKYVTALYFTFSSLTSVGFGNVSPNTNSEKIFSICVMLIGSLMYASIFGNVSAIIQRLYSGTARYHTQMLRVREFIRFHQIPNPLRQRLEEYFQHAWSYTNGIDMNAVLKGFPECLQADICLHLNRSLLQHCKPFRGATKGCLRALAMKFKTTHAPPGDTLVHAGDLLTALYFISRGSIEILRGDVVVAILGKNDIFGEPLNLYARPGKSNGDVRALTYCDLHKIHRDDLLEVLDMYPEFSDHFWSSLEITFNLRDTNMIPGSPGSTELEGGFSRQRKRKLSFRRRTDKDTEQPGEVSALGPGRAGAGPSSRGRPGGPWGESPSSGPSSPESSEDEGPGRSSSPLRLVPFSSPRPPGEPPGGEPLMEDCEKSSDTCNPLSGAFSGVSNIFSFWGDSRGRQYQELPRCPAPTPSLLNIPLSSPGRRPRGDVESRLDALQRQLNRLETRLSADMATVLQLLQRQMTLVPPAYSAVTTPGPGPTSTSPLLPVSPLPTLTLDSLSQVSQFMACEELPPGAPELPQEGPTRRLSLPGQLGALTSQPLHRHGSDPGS

Cc1cc(C)c(C)c(S(=O)(=O)N2CCC(C(=O)OCC(=O)N3c4ccccc4NC(=O)C3(C)C)CC2)c1C
IC50 [1]: 45.3 µM (active)

O=C(c1cccc(F)c1)N1CCC2(CCN(Cc3cc(C(F)(F)F)cc(C(F)(F)F)c3)CC2)CC1
AC50 [2]: inconclusive

Cc1ccc(N2C(=O)NC(=O)/C(=C/C=C/Nc3ccccc3)C2=O)cc1
EC50 [3]: 5.48 µM (active)

Cc1cc(=O)oc2c(CN(CC(C)C)CC(C)C)c(O)ccc12
IC50 [4]: 74 µM (active)

CCOC(=O)c1cnc2ccc(C)cc2c1Sc1ccccc1C(=O)OC
EC50 [5]: 4.01 µM (active)
EC50 [6]: > 60 µM (not active)
IC50 [7]: > 80 µM (inactive)
AC50 [8]: 39.8 µM (inconclusive)

O=[N+]([O-])c1ccccc1-c1ccccc1
AC50 [9]: 39.8 µM (inconclusive)

CCOC(=O)c1cnc(-c2ccccc2)nc1Oc1ccccc1
AC50 [2]: inconclusive

CCc1cc(-c2[nH]nc(C)c2-c2ccccc2Cl)c(O)cc1OC
EC50 [10]: 6.06 µM (inconclusive)
EC50 [11]: > 38 µM (not active)
IC50 [7]: > 80 µM (inactive)
AC50 [12]: 4.42 µM (active)

O=C(c1ccc2c(c1)nc(S)n1c3ccccc3nc21)N1CCN(c2ncccn2)CC1
IC50 [13]: 50.6 µM (active)

N#Cc1ccc(CN2CC3(CCN(C(=O)c4cccc(F)c4)CC3)C2)cc1
AC50 [2]: inconclusive

C[N+]1(CC(COCc2ccccc2)OC(=O)Cc2ccccc2)CCOCC1 (configuration not stated)
IC50 [14]: 2.41 µM (active)
IC50 [15]: 2.42 µM (active)

CCN(CC)c1nc(C)c(C(S)=Nc2cc([N+](=O)[O-])ccc2Cl)s1
EC50 [16]: 24.8 µM (active)
IC50 [17]: > 40 µM (not active)

O=C1CC(Sc2nnnn2C2CCCCC2)C(=O)N1c1ccccc1 (configuration not stated)
IC50 [18]: > 66.6 µM (inactive)

Nc1ccc(N2CCN(C(=O)c3cccs3)CC2)cc1
IC50 [1]: > 100 µM (inactive)
IC50 [19]: > 100 µM (inactive)
IC50 [20]: 19 µM (active)

CC1(C#CC[N+]2(C)CCCCC2)CCC2C(O1)c1ccccc1OC2(C)C (configuration not stated)
IC50 [14]: 3.03 µM (active)
IC50 [15]: 5.07 µM (active)

COc1cc2c(cc1OC)-c1nnc(-c3cccs3)n1C(C)(C)C2
EC50 [21]: > 59.6 µM (inactive)
EC50 [22]: > 59.6 µM (inactive)

CCCCNC(=O)CSc1nc2ccc(NC(=O)CSc3nnc(N)s3)cc2s1
IC50 [14]: 3.61 µM (active)
IC50 [15]: 6.28 µM (active)

COc1ccccc1NS(=O)(=O)c1cc(NC(=O)c2cc3ccccc3oc2=O)ccc1C
EC50 [3]: > 71.5 µM (inactive)

O=C(C1=C(O)C(=O)N(CCN2CCOCC2)C1c1ccc([N+](=O)[O-])cc1)c1cccs1 (configuration not stated)
EC50 [3]: > 71.4 µM (inactive)

COc1cccc(NC(=O)Nc2ccc3nc(-c4ccco4)c(-c4ccco4)nc3c2)c1
IC50 [23]: 1.09 µM (active)

Cc1nn(-c2ccccc2)c(Cl)c1/C=N/Nc1nc2ccccc2n1C
EC50 [5]: 1.94 µM (active)
EC50 [6]: > 60 µM (not active)
IC50 [7]: > 80 µM (inactive)

COc1ccc(Br)cc1/C=N/NC(=O)CNC(=O)c1cccnc1
IC50 [4]: 27.2 µM (active)
